According to patent US9730874B2, “Nitrone compounds and their use in personal care” (Dow Global Technologies LLC, priority 2014, dated 2017):

Test: Oxygen Radical Absorbance Capacity (ORAC) antioxidant potential
Format: biochemical
Conditions: calculated from ORAC values (AUC minus blank) vs Trolox; test concentration 100 micromolar
Experimental: Antioxidant potential is evaluated using the Oxygen Radical Absorbance Capacity (ORAC) protocol. ORAC is a chemical in-vitro method based on the hydrogen atom transfer (HAT) mechanism (see N. Re et al., Free Radical Biology & Medicine, 26 (9/10), 1231 (1997)). ORAC measures antioxidant inhibition of peroxyl radical induced oxidations and thus reflects classical radical chain breaking antioxidant activity by H atom transfer. In this assay, the peroxyl radical reacts with a fluorescent probe to form a non-fluorescent product. This is quantitated using a fluorescence measurement. Antioxidant capacity is determined by decreased rate and amount of product formed over time. This assay depends upon the free radical damage to the fluorescent probe resulting in the change in its fluorescence intensity. The change of fluorescence intensity is an indicator of the degree of free radical damage. In the presence of an antioxidant, the inhibition of free radical damage is reflected in higher fluorescence intensity and can be measured as antioxidant capacity against the free radicals. The uniqueness of ORAC assay is that the reaction is driven to completion. This allows calculation of the area under the curve (AUC) and gives an absolute quantitation of antioxidancy as opposed to relative measurements in many other assays.
As noted, the longer it takes to observe a decrease in fluorescence, the higher the antioxidant (AO) potential. From the AUC for a given antioxidant, the AUC for blank is subtracted to give its ORAC value. The concentration of AO needed to give the same AUC values as Trolox is calculated and used to represent the Trolox equivalent AO Capacity (TEAC). Trolox is ((±)-6-Hydroxy-2,5,7,8-tetramethylchromane-2-carboxylic acid, CAS #53188-07-1), and is used as an internal control.
The ORAC test is conducted in the stilbene-pendant nitrone compounds of Table 1 above (inventive compounds) as well as to Vitamin C, Vitamin E, and the following comparative compounds:
The inventive stilbene-pendant nitrones in the ORAC test solutions were at a concentration of 100 micromolar, while the concentrations of Trolox, Vitamin C, Vitamin E, BHT, PBN+BHT, and VAL-IPHA were at 100 micromolar. The TEAC values calculated from the ORAC values are listed the Table 3.

Molecule	TEAC (Trolox equivalent AO Capacity)
CC(C)(C)/[N+]([O-])=C/c1ccccc1 [PBN, 2-Phenyl-N-tert-butylnitrone, reference compound]	not very high
COc1cc(/C=C/c2ccc(O)c(/C=[N+](/[O-])Cc3ccc(O)cc3O)c2)ccc1O [Sald-24DHBzHA, N-(2-Hydroxy-5-(4-hydroxy-3-methoxystyryl)benzylidene)-1-(2,4-dihydroxyphenyl)methanamine oxide]	7.31
COc1cc(/C=C/c2ccc(O)c(/C=[N+](/[O-])Cc3ccc(O)c(O)c3)c2)ccc1O [Sald-34-DHBzHA, N-(2-Hydroxy-5-(4-hydroxy-3-methoxystyryl)benzylidene)-1-(3,4-dihydroxyphenyl)methanamine oxide]	7.16
COc1cc(/C=C/c2ccc(O)c(/C=[N+](/[O-])Cc3ccccc3)c2)ccc1O [Sald-BzHA, N-(2-Hydroxy-5-(4-hydroxy-3-methoxystyryl)benzylidene)-1-phenylmethanamine oxide]	8.33
COc1cc(/C=C/c2ccc(O)c(/C=[N+](/[O-])Cc3ccc(O)cc3)c2)ccc1O [Sald-pHBzHA, N-(2-Hydroxy-5-(4-hydroxy-3-methoxystyryl)benzylidene)-1-hydroxyphenylmethanamine oxide]	9.02
O=C1O[C@H]([C@@H](O)CO)C(O)=C1O [Vitamin C, reference compound]	0.76
Vitamin E [reference compound]	0.13
